# Experimental data as given in US20260193242A1, “USEFUL COMPOUNDS FOR MODULATING INFLAMMATION” (FLAGSHIP PIONEERING INNOVATIONS VI, LLC, priority 2022, published 2026).
# Legend:
# [1] = tested on: R848-driven IRF reporter (Lucia luciferase, ISG54 promoter/IFN-stimulated response elements) in THP-1 cells; assay: TLR7/8 (R848) stimulated interferon response element reporter gene assay in THP1-Dual cells; assay type: cell-based; details: Homo sapiens, THP-1, 10 μM compound, 1 μM R848, THP1-Dual cells; read-out: R848-driven IRF reporter gene assay (Percent inhibition at 10 μM)
# Protocol: Compounds described herein are added to the human leukemic monocyte-like cell line THP-1 for bioactivity assessment. THP1-Dual cells (InvivoGen, San Diego, CA) feature the Lucia gene, a secreted luciferase reporter gene, under the control of an ISG54 minimal promoter in conjunction with five IFN-stimulated response elements. THP1-Dual cells also express a secreted embryonic alkaline phosphatase (SEAP) reporter gene driven by an IFN-β minimal promoter fused to five copies of the NF-κB consensus transcriptional response element and three copies of the c-Rel binding site. As a result, THP1-Dual cells allow the simultaneous study of the NF-κB pathway, by monitoring the activity of SEAP, and the IRF pathway, by assessing the activity of Lucia luciferase.
# THP-1 dual reporter cells were grown in RPMI 1640 culture medium with 2 mM L-glutamine, 25 mM HEPES, 10% heat-inactivated fetal bovine serum, 100 μg/ml Normocin antibiotic (InvivoGen), Pen-Strep antibiotic (100 U/ml-100 μg/ml, InvivoGen). On the day of the assay, cells were seeded in a 384 flat-bottom well plate at 25,000 cells/well and incubated for 2 hours. Cells were then incubated with 10 μM of the compounds described herein or with 1 μM of IKK-16 (Selleck), a potent inhibitor of IκB kinases (IKKs) or with DMSO (vehicle control) for 2 hours, followed by the addition of the synthetic TLR7/8 agonist R848 at 1 μM and incubation for 16 hours. After incubation was concluded, the cultures supernatants were collected and IRF related activity was assessed by measurement of the Lucia luciferase, using Quanti-Luc assay (InvivoGen). NF-κB pathway activity was assessed by quantifying SEAP using Quanti-Blue assay (InvivoGen).
# LPS-stimulated MoDC = assay: TLR4 stimulated pro-inflammatory cytokine release in primary human monocyte-derived dendritic cells; assay type: cell-based; details: healthy human donors D14 and D15, dose response
# Source text: Monocyte derived DC (MoDC) were differentiated from healthy human donor derived CD14+ monocytes. Commercially available freshly prepared Leukopaks were obtained from healthy blood donor and kept refrigerated on ice before spin centrifuged and the pelleted cells are rinsed and resuspended with MACS buffer (Miltenyi Biotec). Next, CD14+ monocytes were purified using MultiMACS™ Cell24 Separator-Plus instrumentation and reagents according to the manufacturer (Miltenyi Biotec) instructions. The resulting purified CD14+ cell fraction was washed, enumerated, and subsequently cryopreserved for later use. At the experiment first day cryopreserved CD14+ cells were thawed, rinsed with culture media, and then resuspended in culture media principally composed of RPMI (Invitrogen) supplemented with 10% v/v heat inactivated FBS. For generation of MoDC, these CD14+ cells were enumerated and seeded into 75 cm^2 tissue culture flasks in 30 mL of culture media supplemented with GM-CSF (40-100 ng/ml) and IL-4 (25 ng/ml). Every other day, half of the culture media was replaced with fresh media (containing the same cytokine supplementation) and after 6-7 days of culture, fully differentiated and mature MoDC were obtained as confirmed by conventional Immuno-phenotype markers (levels of expression or absence of surface CD80, CD83, CD86, CD209, HLA-DR, CD14 & CD64) that were verified by flow-cytometry. Fully differentiated (mature) MoDCs, were seeded into 96 flat-well plates and incubated with various concentrations of the compounds described herein, or with control solution (DMSO), or with the pharmacologic inhibitors Cyclosporin-A (CsA) or BAY 61-3606 (which is a known inhibitor of Syk kinase) for 6 hours. Next, the cells were stimulated with Toll-like receptor agonists R848 (TLR7/8) or LPS (TLR4), and further incubated for 18-20 hours. After incubation concluded, culture supernatants were collected, and the levels of inflammatory cytokines and chemokines were measured in a triplicate setting for each condition by Luminex® multiplex assay.
# [2] = tested on: LPS induced septic shock, C57/B6L mice; assay: LPS induced septic shock model in mice; assay type: in vivo; details: 30 mg/kg PO in Phosal 50, 30 min before LPS 1 mg/kg, plasma 2 hours after LPS, vs vehicle
# Protocol: In the LPS induced septic shock model in mice, the TLR4 agonist LPS is injected into the peritoneal cavity of mice, inducing production of pro-inflammatory cytokines that can be measured in blood two hours later (FIG. 2).
# Female C57/B6L mice, 5 mice in each group, were injected with LPS (1 mg/kg) to induce septic shock 30 minutes after oral administration of compounds described herein (formulated in Phosal 50) or the controls dexamethasone (formulated in saline), a corticosteroid, and MCC950 (formulated in 0.5% methylcellulose), an inflammasome inhibitor. The mice were euthanized 2 hours after LPS stimulation, and the whole blood was drawn, processed to plasma, and snap frozen. Cytokine levels in plasma were determined by cytometric bead array assay.
smiles,measurement,setting,value
"CN1[C@@H](C(=O)O)CC[C@H]1[C@@H]1CSC(c2ccccc2O)=N1 [Compound I-4, (2R,5S)-5-((R)-2-(2-hydroxyphenyl)-4,5-dihydrothiazol-4-yl)-1-methylpyrrolidine-2-carboxylic acid]",inhibition at 10 µM,[1],≥ 50%
same,IL-6 level,LPS-stimulated MoDC,statistically significant decrease
same,IL-12p70 level,LPS-stimulated MoDC,statistically significant decrease
same,IL-23 level,LPS-stimulated MoDC,statistically significant decrease
same,TNFα level,LPS-stimulated MoDC,statistically significant decrease
same,IFNγ in plasma,[2],statistically significant decreases
same,IL-12p70 in plasma,[2],statistically significant decreases
same,TNFα in plasma,[2],statistically significant decreases
